The series is described as follows: second pKa from 31P shift. It counts as physicochemical. An excerpt: This means that both the pPye and pHis have the same charge state at physiological pH. Since the pKa2 of pHis is […], both of the phosphate group oxygen atoms in pHis will be depronated. For pPye, the doubly deprotonated state will be favored at physiological pH (pH 7.4), well mimicking pHis.

For `NCCn1cc(P(=O)(O)O)cn1` [pPye], the pKa (usually the negative logarithm of the acid dissociation constant) is about 6.7.

For the origin of these results see patent US12168671B2, “Phosphohistidine mimetics and antibodies to same” (The Trustees of Princeton University, priority 2013, dated 2024).
